The text below walks through data of ChEMBL document CHEMBL5338773, “First-in-Class Selective Inhibitors of the Lysine Acetyltransferase KAT8” (J Med Chem, 2023).

Activity calls are given as the source filed them. No cut-off for these calls is given here.

Data set [1] concerns HCT-116. Kind of data set: Downregulation of UCP2 mRNA expression in human HCT-116 cells at 100 uM incubated for 48 hrs by qRT-PCR analysis. The data set is classed as functional, cell-based.
Data set [2] has as its system NCI-H1299. Kind of data set: Antiproliferative activity against human NCI-H1299 cells assessed as cell proliferation inhibition at 10 to 100 uM incubated for 72 hrs by MTT assay. Format: functional, cell-based. The conditions noted are these: dose 10-100 µM.
Data set [3] has as its system NCI-H460. The data set is described as follows: Antiproliferative activity against human NCI-H460 cells assessed as cell proliferation inhibition at 10 to 100 uM incubated for 72 hrs by MTT assay. Particulars: dose 10-100 µM. Format: functional, cell-based.
Data set [4] has as its target Histone deacetylase 3 (Homo sapiens) (UniProt O15379). Kind of data set: Inhibition of human recombinant KDAC3 using Boc-Lys-(Ac)-AMC as substrate at 50 to 100 uM incubated for 45 mins by fluorescence microplate reader analysis. The conditions noted are these: dose 50-100 µM.
In data set [5] the target is T1, Histone acetyltransferase KAT8 (Homo sapiens) (UniProt Q9H7Z6).
T1 sequence (whole entry): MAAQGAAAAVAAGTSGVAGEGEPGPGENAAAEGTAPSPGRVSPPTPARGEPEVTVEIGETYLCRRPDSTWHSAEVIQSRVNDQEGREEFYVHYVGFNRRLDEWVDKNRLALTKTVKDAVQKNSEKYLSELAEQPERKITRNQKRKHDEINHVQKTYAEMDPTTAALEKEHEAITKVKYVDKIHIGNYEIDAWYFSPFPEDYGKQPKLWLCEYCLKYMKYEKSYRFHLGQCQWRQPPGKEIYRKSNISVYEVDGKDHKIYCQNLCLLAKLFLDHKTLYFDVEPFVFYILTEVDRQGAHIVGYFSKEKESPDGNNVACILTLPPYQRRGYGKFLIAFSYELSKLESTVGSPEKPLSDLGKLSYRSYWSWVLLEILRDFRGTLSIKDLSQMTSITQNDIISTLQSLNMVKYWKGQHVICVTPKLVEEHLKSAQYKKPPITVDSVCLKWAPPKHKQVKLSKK
Kind of data set: Inhibition of human KAT8 in human HT-29 cells assessed as change in histone H3K27 acetylation level by measuring fluorescence intensity in nucleus at 50 uM incubated for 24 hrs by DAPI staining based immunofluorescence analysis. The data set is classed as cell-based.

The nature of data set [6]: Thiol reactivity of compound at pH 7.5 buffer at 0.5 mM and measured upto 24 hrs in presence of DTT and BME by HPLC analysis. The data set is classed as physicochemical. Particulars: pH 7.5, 24 h, 500 µM.
The target in data set [7] is Histone acetyltransferase KAT2B (Homo sapiens) (UniProt Q92831). The data set is described as follows: Inhibition of recombinant human KAT2B (492 to 658 residues) using histone H3 peptide and [3H]-acetyl-coA as substrates at 200 uM incubated for 1 hrs by liquid scintillation counter analysis.
The target of data set [8] is T1, Histone acetyltransferase KAT8 (Homo sapiens). The data set is described as follows: Binding affinity to KAT8 in human HT-29 cells at 59 degreeC at 100 nM incubated for 4 hrs by […] analysis. The data set is classed as cell-based.
In data set [9] the test system is MCF7. Kind of data set: Antiproliferative activity against human MCF7 cells assessed as cell proliferation inhibition at 10 to 100 uM incubated for 72 hrs by MTT assay. Format: functional, cell-based. The conditions noted are these: dose 10-100 µM.
In data set [10] the target is T2, Protein deacetylase HDAC6 (Homo sapiens) (UniProt Q9UBN7).
T2 sequence (whole entry): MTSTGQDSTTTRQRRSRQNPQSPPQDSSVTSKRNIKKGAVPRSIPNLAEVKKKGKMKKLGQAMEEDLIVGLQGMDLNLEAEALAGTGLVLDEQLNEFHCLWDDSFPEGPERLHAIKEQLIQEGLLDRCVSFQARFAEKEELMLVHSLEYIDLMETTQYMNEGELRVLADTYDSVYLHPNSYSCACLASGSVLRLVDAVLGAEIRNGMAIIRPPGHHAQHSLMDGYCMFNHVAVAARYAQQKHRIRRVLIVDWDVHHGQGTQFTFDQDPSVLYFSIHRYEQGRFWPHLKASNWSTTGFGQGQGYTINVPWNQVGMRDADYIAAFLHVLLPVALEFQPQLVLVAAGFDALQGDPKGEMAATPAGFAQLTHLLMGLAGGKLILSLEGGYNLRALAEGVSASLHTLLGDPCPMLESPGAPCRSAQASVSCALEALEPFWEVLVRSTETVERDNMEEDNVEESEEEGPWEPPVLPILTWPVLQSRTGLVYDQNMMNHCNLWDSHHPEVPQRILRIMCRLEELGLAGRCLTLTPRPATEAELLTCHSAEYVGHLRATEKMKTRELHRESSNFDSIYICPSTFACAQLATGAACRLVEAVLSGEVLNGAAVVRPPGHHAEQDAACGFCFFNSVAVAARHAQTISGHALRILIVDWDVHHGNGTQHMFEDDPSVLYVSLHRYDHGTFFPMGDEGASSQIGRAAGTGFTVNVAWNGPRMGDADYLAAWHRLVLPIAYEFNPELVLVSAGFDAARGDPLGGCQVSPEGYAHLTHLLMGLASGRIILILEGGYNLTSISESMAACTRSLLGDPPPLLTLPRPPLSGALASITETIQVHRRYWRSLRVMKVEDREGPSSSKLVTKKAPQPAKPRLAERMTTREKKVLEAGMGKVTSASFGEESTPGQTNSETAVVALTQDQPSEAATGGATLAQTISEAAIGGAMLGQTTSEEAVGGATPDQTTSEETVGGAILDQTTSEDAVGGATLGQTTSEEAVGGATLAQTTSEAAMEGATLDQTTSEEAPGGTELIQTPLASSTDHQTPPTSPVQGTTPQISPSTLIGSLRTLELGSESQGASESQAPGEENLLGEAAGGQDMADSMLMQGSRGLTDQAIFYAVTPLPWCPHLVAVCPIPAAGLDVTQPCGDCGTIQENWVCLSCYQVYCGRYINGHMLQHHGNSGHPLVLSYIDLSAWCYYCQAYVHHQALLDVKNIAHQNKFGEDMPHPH
Kind of data set: Inhibition of human recombinant KDAC6 using Boc-Lys-(Ac)-AMC as substrate at 50 to 100 uM incubated for 45 mins by fluorescence microplate reader analysis. The conditions noted are these: dose 50-100 µM.

For data set [11], the species on record is Homo sapiens. Kind of data set: Inhibition of human recombinant KDAC1 using Boc-Lys-(Ac)-AMC as substrate at 50 to 100 uM incubated for 45 mins by fluorescence microplate reader analysis. Particulars: dose 50-100 µM.
Data set [12] relates to HCT-116. Kind of data set: Induction of apoptosis in human HCT-116 cells assessed as increase in apoptotic cells at 100 uM incubated for 72 hrs in presence of chloroquine by Annexin V-FITC staining based flow cytometry. The data set is classed as functional, cell-based.
The species entered for data set [13] is Homo sapiens. Kind of data set: Inhibition of human recombinant KDAC8 using Boc-Lys-(Ac)-AMC as substrate at 50 to 100 uM incubated for 45 mins by fluorescence microplate reader analysis. The conditions noted are these: dose 50-100 µM.
For data set [14], the system named is U-251. The data set is described as follows: Antiproliferative activity against human U-251 cells assessed as cell proliferation inhibition at 10 to 100 uM incubated for 72 hrs by MTT assay. The data set is classed as functional, cell-based. The conditions noted are these: dose 10-100 µM.
Data set [15] concerns HT-29. Kind of data set: Induction of cell cycle arrest in human HT-29 cells assessed as increase in number of cells at sub-G1 phase with DNA hypodiploid at 50 uM incubated for 72 hrs by PI-staining based flow cytometry (Rvb=2%). The data set is classed as functional.
Data set [16] has as its target T1, Histone acetyltransferase KAT8 (Homo sapiens). The data set is described as follows: Binding affinity to KAT8 in human HT-29 cells assessed as stabilization of enzyme against thermal induced aggregation at 59 degreeC at 100 nM incubated for 4 hrs by Western blot analysis. The data set is classed as cell-based.

Histone acetyltransferase KAT2B (Homo sapiens), sequence (Q92831 whole entry, looked up, the tested form may be a part): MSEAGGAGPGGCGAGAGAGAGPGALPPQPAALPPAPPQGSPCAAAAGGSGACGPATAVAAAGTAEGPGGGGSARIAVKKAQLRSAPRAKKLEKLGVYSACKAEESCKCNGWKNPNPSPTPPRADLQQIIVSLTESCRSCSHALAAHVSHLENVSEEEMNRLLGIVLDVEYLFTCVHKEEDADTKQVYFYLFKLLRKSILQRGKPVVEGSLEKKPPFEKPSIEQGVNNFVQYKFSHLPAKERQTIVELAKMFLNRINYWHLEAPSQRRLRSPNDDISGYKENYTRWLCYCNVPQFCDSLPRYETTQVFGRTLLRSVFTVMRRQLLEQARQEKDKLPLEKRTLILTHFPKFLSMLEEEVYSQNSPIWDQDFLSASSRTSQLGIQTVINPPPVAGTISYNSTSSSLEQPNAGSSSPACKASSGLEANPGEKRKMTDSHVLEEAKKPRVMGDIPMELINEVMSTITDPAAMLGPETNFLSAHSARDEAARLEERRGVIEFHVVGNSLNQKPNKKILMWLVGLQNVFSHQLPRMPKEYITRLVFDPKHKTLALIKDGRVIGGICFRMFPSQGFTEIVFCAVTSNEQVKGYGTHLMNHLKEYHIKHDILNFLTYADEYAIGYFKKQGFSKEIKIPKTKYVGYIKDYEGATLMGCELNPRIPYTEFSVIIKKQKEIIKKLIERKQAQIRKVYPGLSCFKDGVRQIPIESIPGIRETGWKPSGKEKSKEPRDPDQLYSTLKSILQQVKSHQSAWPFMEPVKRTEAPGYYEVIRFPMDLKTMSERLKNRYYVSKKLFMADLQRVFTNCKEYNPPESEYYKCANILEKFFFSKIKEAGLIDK
Histone deacetylase 3 (Homo sapiens), sequence (O15379 whole entry): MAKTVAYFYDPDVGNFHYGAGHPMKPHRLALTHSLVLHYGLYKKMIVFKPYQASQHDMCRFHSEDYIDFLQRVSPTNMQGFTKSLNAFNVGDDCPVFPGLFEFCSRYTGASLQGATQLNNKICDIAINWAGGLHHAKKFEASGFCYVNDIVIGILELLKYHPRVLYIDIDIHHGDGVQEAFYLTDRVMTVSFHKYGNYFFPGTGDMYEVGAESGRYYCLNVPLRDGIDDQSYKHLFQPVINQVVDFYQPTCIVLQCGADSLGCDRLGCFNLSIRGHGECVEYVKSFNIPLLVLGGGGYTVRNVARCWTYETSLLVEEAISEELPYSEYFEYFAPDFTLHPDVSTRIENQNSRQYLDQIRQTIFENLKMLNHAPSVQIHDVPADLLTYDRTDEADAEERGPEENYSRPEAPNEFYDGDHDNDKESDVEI

As for `O=C(O)c1ccc(N2N=C(c3ccccc3)/C(=C/c3ccc[nH]3)C2=O)cc1`, the result in [1], in data set [8], in data set [12] and in [16] was Active. Moreover, the Activity entry is “Dose-Dependent Effect” in data set [2] and 8% in data set [15]. The outcome in [3], in data set [9] and in data set [14] was inactive. For the same molecule, the inhibition entry in data set [4], in data set [5], in [7], in [10], in [11] and in data set [13] was “inactive” throughout. Moreover, the Drug metabolism entry in data set [6] is on record as “Not Active”.
As for `CC1=NN(c2ccc(C(=O)O)cc2)C(=O)/C1=C\c1ccc[nH]1`, the outcome in data set [1], in data set [3], in [8], in data set [12] and in [16] was Active. Also, the values for the Activity entry in data set [2] and in [15] were “Dose-Dependent Effect” and 7%, respectively. Also, the inhibition entry in data set [4], in data set [5], in data set [7], in [10], in data set [11] and in data set [13] was “inactive” in each case. For the same molecule, the Drug metabolism entry in [6] is reported as “Not Active”. In addition, the result in [9] and in [14] was inactive.
